In the supplement of paper PMC10307832:

Columns and labels:
Test in all cases: relative viability (nuclei count vs DMSO), 5 days (fraction); higher = more cells survive
VX-11e + Trametinib = compound: CC1=CN=C(N=C1C2=CNC(=C2)C(=O)N[C@H](CO)C3=CC(=CC=C3)Cl)NC4=C(C=C(C=C4)F)Cl [VX-11e] + CC(=O)Nc1cccc(-n2c(=O)n(C3CC3)c(=O)c3c(Nc4ccc(I)cc4F)n(C)c(=O)c(C)c32)c1 [Trametinib] (partner 0.02 µM)
Procedure, shortened: (§1)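 Relative viability was taken as the ratio of nuclei in treated wells to nuclei in vehicle wells. Lung cancer cell lines in 1536-well plates received compounds by pin tool one day after seeding, either one drug alone or a fixed anchor-drug dose plus five library-drug doses (not always all listed) in √10 steps. Nuclei were counted on 4× images after 5 days of treatment, and values are medians of duplicate plates.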

VX-11e + Navitoclax = compound: CC1=CN=C(N=C1C2=CNC(=C2)C(=O)N[C@H](CO)C3=CC(=CC=C3)Cl)NC4=C(C=C(C=C4)F)Cl [VX-11e] + CC1(C)CCC(c2ccc(Cl)cc2)=C(CN2CCN(c3ccc(C(=O)NS(=O)(=O)c4ccc(N[C@H](CCN5CCOCC5)CSc5ccccc5)c(S(=O)(=O)C(F)(F)F)c4)cc3)CC2)C1 [Navitoclax] (partner 0.5 µM)
Procedure, shortened: as §1

VX-11e + Phenformin = compound: CC1=CN=C(N=C1C2=CNC(=C2)C(=O)N[C@H](CO)C3=CC(=CC=C3)Cl)NC4=C(C=C(C=C4)F)Cl [VX-11e] + N=C(N)NC(=N)NCCc1ccccc1 [Phenformin] (partner 250 µM)
Procedure, shortened: as §1

VX-11e + Pemetrexed = compound: CC1=CN=C(N=C1C2=CNC(=C2)C(=O)N[C@H](CO)C3=CC(=CC=C3)Cl)NC4=C(C=C(C=C4)F)Cl [VX-11e] + Nc1nc2[nH]cc(CCc3ccc(C(=O)N[C@@H](CCC(=O)O)C(=O)O)cc3)c2c(=O)[nH]1 [Pemetrexed] (partner 0.2 µM)
Procedure, shortened: as §1

Cell Line	relative viability (VX-11e + Trametinib; first compound 0.1265 µM)	relative viability (VX-11e + Trametinib; first compound 0.4 µM)	relative viability (VX-11e + Trametinib; first compound 1.265 µM)	relative viability (VX-11e + Trametinib; first compound 4 µM)	relative viability (VX-11e + Navitoclax; first compound 0.04 µM)	relative viability (VX-11e + Navitoclax; first compound 0.1265 µM)	relative viability (VX-11e + Navitoclax; first compound 0.4 µM)	relative viability (VX-11e + Navitoclax; first compound 1.265 µM)	relative viability (VX-11e + Navitoclax; first compound 4 µM)	relative viability (VX-11e + Phenformin; first compound 0.04 µM)	relative viability (VX-11e + Phenformin; first compound 0.1265 µM)	relative viability (VX-11e + Phenformin; first compound 0.4 µM)	relative viability (VX-11e + Phenformin; first compound 1.265 µM)	relative viability (VX-11e + Phenformin; first compound 4 µM)	relative viability (VX-11e + Pemetrexed; first compound 0.1265 µM)	relative viability (VX-11e + Pemetrexed; first compound 0.4 µM)	relative viability (VX-11e + Pemetrexed; first compound 1.265 µM)	relative viability (VX-11e + Pemetrexed; first compound 4 µM)	relative viability (VX-11e + Trametinib; first compound 0.04 µM)	relative viability (VX-11e + Pemetrexed; first compound 0.04 µM)
SW 1573	0.567	0.498	0.401	0.328	1.12	0.959	0.945	0.672	0.553	0.39	0.346	0.289	0.287	0.154	0.88	0.703	0.559	0.393	–	–
NCI-H1395	0.942	–	0.895	0.617	1.16	0.999	0.832	1.06	0.659	0.42	0.405	0.453	0.461	0.398	0.864	–	0.96	0.533	1	0.744
HCC-827	0.568	0.454	0.549	0.274	1.07	1.02	0.992	1.24	0.919	0.409	0.413	0.369	0.479	0.375	0.226	0.241	0.271	0.252	0.555	0.254
NCI-H441	0.485	–	0.278	0.325	0.668	0.469	–	0.905	0.556	0.858	0.837	–	0.732	0.49	0.253	–	0.259	0.238	0.448	0.27
NCI-H2126	0.539	0.575	0.523	0.473	–	0.861	0.877	0.785	0.638	0.48	0.512	–	0.567	0.467	0.621	0.399	0.567	0.517	0.543	0.554
EPLC-272H	0.299	–	0.225	0.173	1.09	1.02	1.01	0.82	0.668	0.322	0.22	–	0.32	0.225	0.39	0.408	0.305	0.253	0.268	0.334
NCI-H1651	0.808	0.78	0.691	0.781	1.06	1.1	0.968	0.893	0.939	0.347	0.301	0.23	0.314	0.305	0.608	0.553	0.479	0.484	0.881	0.469
LOU-NH91	0.73	–	0.768	0.691	0.751	0.692	–	0.593	0.581	0.65	0.721	0.312	0.468	0.569	0.373	–	0.367	0.358	0.813	0.448
HARA	0.636	0.64	0.209	0.244	1.16	1.1	1.13	1.13	0.968	0.453	0.431	0.414	0.399	0.314	0.236	0.26	0.186	0.131	0.589	0.253
CAL-12T	0.243	0.285	0.229	0.228	1.14	1.3	1.09	1.2	0.422	0.677	0.507	0.504	0.41	0.194	1.36	1.19	1.02	0.438	0.235	1.28
NCI-H1793	0.316	–	0.344	0.27	–	0.526	–	0.382	0.152	0.372	0.314	–	0.34	0.245	0.715	–	0.591	0.259	–	–
A-427	0.657	0.708	0.694	0.379	0.999	0.88	0.796	0.585	0.268	0.343	0.213	0.263	0.264	0.158	0.983	1.1	0.966	0.606	0.73	1.02
NCI-H520	0.668	0.528	0.481	0.22	0.963	1.04	1	1.38	0.992	0.505	0.483	0.449	0.752	0.479	0.738	0.716	0.65	0.478	0.647	0.752
HCC-44	1.07	0.92	0.888	0.607	0.92	0.883	1.22	1	0.732	0.211	0.172	0.115	0.119	0.139	0.614	0.63	0.656	0.793	1.05	0.766
NCI-H2009	0.209	0.247	0.162	0.169	1.17	1.14	1.2	0.938	0.289	0.575	0.535	0.481	0.251	0.178	1.03	1.12	1.1	0.673	0.22	1.08
NCI-H2085	0.516	0.524	0.482	0.497	1.17	1.02	1.1	0.919	0.719	0.6	0.707	0.641	0.449	0.425	0.873	0.81	0.635	0.583	0.495	0.862
NCI-H1666	0.77	–	0.848	0.726	0.987	1.1	0.848	0.51	0.368	0.556	0.554	0.478	0.569	0.503	0.901	–	0.756	0.6	0.866	0.851
LCLC-97TM1	0.179	0.17	–	0.0986	0.492	0.463	–	0.408	0.157	0.525	0.393	0.347	0.516	0.382	0.14	0.243	–	0.171	0.21	0.183
NCI-H1755	0.755	0.78	0.778	0.612	1.06	0.956	0.972	0.956	0.558	0.694	0.542	0.248	0.594	0.51	0.326	0.409	0.424	0.396	0.751	0.449
H3255	0.635	0.425	0.443	0.33	0.526	0.451	0.657	0.614	0.496	0.359	0.411	0.378	0.362	0.319	0.565	0.523	0.513	0.47	0.678	0.478
NCI-H2087	0.182	–	0.181	0.182	0.983	1	0.999	0.8	0.257	0.459	0.462	–	0.393	0.181	0.613	–	0.64	0.544	0.255	0.691
BEN	0.845	1.06	0.798	1.1	0.0581	0.0703	0.0708	0.061	0.0537	–	0.267	0.256	0.299	0.253	0.69	0.875	0.582	0.629	1.08	0.491
COR-L23	0.441	0.323	0.328	0.188	1.25	1.13	0.924	0.681	0.305	0.52	0.409	0.471	0.428	0.276	0.196	0.213	0.217	0.179	0.481	0.236
HCC-366	0.344	–	0.289	0.187	1.22	1.02	–	0.993	0.708	0.61	0.549	–	0.57	0.463	0.178	–	0.15	0.138	0.353	0.246
SK-MES-1	0.486	0.399	0.338	0.27	1.21	1.15	1.24	1.1	0.408	0.693	0.64	0.694	0.618	0.368	0.921	0.818	0.553	0.42	0.566	0.903
UMC-11	0.626	0.563	0.357	0.551	0.288	0.263	0.295	0.324	0.327	0.291	0.309	0.28	0.301	0.283	0.762	0.866	0.754	0.681	0.563	0.799
NCI-H2023	0.495	0.391	0.292	0.171	1.02	0.879	0.966	1	0.405	0.393	0.404	0.291	0.322	0.191	0.241	0.225	0.145	0.157	0.601	0.224
LK-2	0.668	0.806	0.234	0.312	0.893	0.732	0.781	0.738	0.86	0.241	0.601	0.311	0.189	0.173	0.269	0.145	0.183	0.16	0.831	0.171
